Data taken from patent US12281225B2, “Process for preparing stable polymers containing vinylimidazole” (BASF SE, priority 2018, dated 2025).

Experiments:
Type in all cases: physicochemical
[1] = Analysis of active substance: preservative concentration before and after storage in VI-containing polymer solution; settings: for active-substance concentration, 0 d, RT: before storage; for active-substance concentration, 14 d, 40° C.: storage 14 d at 40° C.; for active-substance concentration, 28 d, 40° C.: storage 28 d at 40° C.; for active-substance concentration, 60 d 40° C.: storage 60 d at 40° C.
Description: Stability of Preservatives in VI-Containing Polymers:
The following stabilizers for VI-containing polymers (here: aqueous solution of a copolymer of vinylpyrrolidone and vinylimidazole) were tested.
MIT, BIT, CMIT, OIT, DCOIT and iodopropynyl butyl carbamate were determined by RP chromatography with UV detection after dilution of the sample to be tested. An RP18 column was used for this purpose, with an eluent composed of an acid-methanol mixture under isocratic conditions.

[2] = Iodine color number according to DIN 6162:2014-09
[3] = Physical stability; visual assessment (color, turbidity, phase separation); set-up: key: ++: no discernible change with respect to color, turbidity or phase separation; +: marginal change in color number, somewhat increased Tyndall effect but no turbidity; 0: easily discernible increase in color number and moderate turbidity−no phase separation; −: turbidity and change in color number readily discernible by visual assessment; −−: strong color change with strong turbidity and incipient phase separation
Description: Physical stability; visual assessment according to:
++=no discernible change with respect to color, turbidity or phase separation; +=marginal change in color number, somewhat increased Tyndall effect but no turbidity; 0=easily discernible increase in color number and moderate turbidity−no phase separation; − turbidity and change in color number readily discernible by visual assessment; −− strong color change with strong turbidity and incipient phase separation.
Before storage, all batches could be rated ++ (no turbidity or phase separation; no influence of the biocide on the color number of the product).

[4] = Polymer P5 (HP56) with stabilizer

CCCCCCCCCC[N+](C)(C)CCCCCCCCCC.[Cl-] [DDAC, didecyldimethylammonium chloride]
active-substance concentration, 0 d, RT ([1]; in Polymer P1): 950 ppm | active-substance concentration, 14 d, 40° C. ([1]; in Polymer P1): 950 ppm | active-substance concentration, 28 d, 40° C. ([1]; in Polymer P1): 940 ppm | active-substance concentration, 60 d 40° C. ([1]; in Polymer P1): 940 ppm | active-substance concentration, 0 d, RT ([1]; in Polymer P2): 950 ppm | active-substance concentration, 14 d, 40° C. ([1]; in Polymer P2): 950 ppm | active-substance concentration, 28 d, 40° C. ([1]; in Polymer P2): 940 ppm | active-substance concentration, 60 d 40° C. ([1]; in Polymer P2): 940 ppm | active-substance concentration, 0 d, RT ([1]; in Polymer P3): 950 ppm | active-substance concentration, 14 d, 40° C. ([1]; in Polymer P3): 950 ppm | active-substance concentration, 28 d, 40° C. ([1]; in Polymer P3): 940 ppm | active-substance concentration, 60 d 40° C. ([1]; in Polymer P3): 930 ppm | active-substance concentration, 0 d, RT ([1]; in Polymer P4): 950 ppm | active-substance concentration, 14 d, 40° C. ([1]; in Polymer P4): 950 ppm | active-substance concentration, 28 d, 40° C. ([1]; in Polymer P4): 942 ppm | active-substance concentration, 60 d 40° C. ([1]; in Polymer P4): 940 ppm | active-substance concentration, 0 d, RT ([1]; in Polymer P5 (HP56)): 950 ppm | active-substance concentration, 14 d, 40° C. ([1]; in Polymer P5 (HP56)): 950 ppm | active-substance concentration, 28 d, 40° C. ([1]; in Polymer P5 (HP56)): 940 ppm | active-substance concentration, 60 d 40° C. ([1]; in Polymer P5 (HP56)): 940 ppm | active-substance concentration, 0 d, RT ([1]; in Polymer P6): 950 ppm | active-substance concentration, 14 d, 40° C. ([1]; in Polymer P6): 950 ppm | active-substance concentration, 28 d, 40° C. ([1]; in Polymer P6): 950 ppm | active-substance concentration, 60 d 40° C. ([1]; in Polymer P6): 943 ppm | active-substance concentration, 0 d, RT ([1]; in Polymer P7): 950 ppm | active-substance concentration, 14 d, 40° C. ([1]; in Polymer P7): 947 ppm | active-substance concentration, 28 d, 40° C. ([1]; in Polymer P7): 945 ppm | active-substance concentration, 60 d 40° C. ([1]; in Polymer P7): 938 ppm | active-substance concentration, 0 d, RT ([1]; in Polymer P8): 950 ppm | active-substance concentration, 14 d, 40° C. ([1]; in Polymer P8): 950 ppm | active-substance concentration, 28 d, 40° C. ([1]; in Polymer P8): 940 ppm | active-substance concentration, 60 d 40° C. ([1]; in Polymer P8): 940 ppm | active-substance concentration, 0 d, RT ([1]; in Polymer P9): 950 ppm | active-substance concentration, 14 d, 40° C. ([1]; in Polymer P9): 950 ppm | active-substance concentration, 28 d, 40° C. ([1]; in Polymer P9): 944 ppm | active-substance concentration, 60 d 40° C. ([1]; in Polymer P9): 940 ppm | Iodine color number, 60 d 40° C. ([2]; Polymer P1 with stabilizer): 2.9 | Iodine color number, start ([2]; Polymer P1 with stabilizer): 2.9 | Iodine color number, 60 d 40° C. ([2]; Polymer P2 with stabilizer): 3.0 | Iodine color number, start ([2]; Polymer P2 with stabilizer): 2.9 | Iodine color number, 60 d 40° C. ([2]; Polymer P3 with stabilizer): 3.3 | Iodine color number, start ([2]; Polymer P3 with stabilizer): 3.3 | Iodine color number, 60 d 40° C. ([2]; Polymer P4 with stabilizer): 3.3 | Iodine color number, start ([2]; Polymer P4 with stabilizer): 3.3 | Iodine color number, 60 d 40° C. [2, 4]: 3.3 | Iodine color number, start [2, 4]: 3.3 | Iodine color number, 60 d 40° C. ([2]; Polymer P6 with stabilizer): 3.3 | Iodine color number, start ([2]; Polymer P6 with stabilizer): 3.3 | Iodine color number, 60 d 40° C. ([2]; Polymer P7 with stabilizer): 3.3 | Iodine color number, start ([2]; Polymer P7 with stabilizer): 3.3 | Iodine color number, 60 d 40° C. ([2]; Polymer P8 with stabilizer): 3.3 | Iodine color number, start ([2]; Polymer P8 with stabilizer): 3.3 | Iodine color number, 60 d 40° C. ([2]; Polymer P9 with stabilizer): 3.9 | Iodine color number, start ([2]; Polymer P9 with stabilizer): 3.8 | Physical stability, 60 d 40° C.* ([3]; Polymer P1 with stabilizer): ++ | Physical stability, 60 d 40° C.* ([3]; Polymer P2 with stabilizer): ++ | Physical stability, 60 d 40° C.* ([3]; Polymer P3 with stabilizer): ++ | Physical stability, 60 d 40° C.* ([3]; Polymer P4 with stabilizer): ++ | Physical stability, 60 d 40° C.* [3, 4]: ++ | Physical stability, 60 d 40° C.* ([3]; Polymer P6 with stabilizer): ++ | Physical stability, 60 d 40° C.* ([3]; Polymer P7 with stabilizer): ++ | Physical stability, 60 d 40° C.* ([3]; Polymer P8 with stabilizer): ++ | Physical stability, 60 d 40° C.* ([3]; Polymer P9 with stabilizer): ++
